{"source": "patent US4558142A", "about": "“7-Fluoro-prostacyclin analogs” (Hoffmann-La Roche Inc., priority 1982, dated 1985)", "test_system": "platelet aggregation", "assay": "inhibition of arachidonic acid-induced platelet aggregation in beagle platelet rich plasma (PRP), light transmission", "format": "cell-based", "settings": "Canis lupus familiaris, arachidonic acid inducer, 37°", "procedure": "That the prostacyclins of formulas I-A and I-B of this invention are active as anti-blood platelet aggregating agents can be seen from the administration of (5Z,7β,9α,11α,13E,15R)-7-fluoro-6,9-epoxy-11,15-dihydroxy-16,16-dimethyl-prosta-5,13-dien-1-oic acid methyl ester by the following test.\n30 Ml. of blood was drawn from the jugular vein of a conscious beagle using two 15 ml. Vacutainer tubes, with no additive, connected to a 20 g. 1 inch multiple sample needle. The blood was immediately transferred to a 50 ml. conical plastic centrifuge tube containing 3 ml. of 3.8% sodium citrate (3.8 grams of sodium citrate crystal, Na3 C6 H5 O7.2H2 O, in 100 ml. of distilled water), capped and gently mixed. The citrated blood was centrifuged at 160 g. for 15 minutes at 20° C. The platelet rich plasma (PRP) was carefully withdrawn with a pipette, without disturbing the buffy coat and erythrocyte layers. The PRP was placed in 16×125 mm plastic tubes, capped and stored at room temperature 19°-21° C. PRP preparations showing a tinge of redness, indicative of hemolysis, were discarded. The remaining blood, after the removal of PRP, was recentrifuged at higher speed, 900 g. for 10 minutes, to yield platelet poor plasma (PPP). The PRP was used immediately and the aggregation study completed within three hours after preparation.\nPlatelet aggregation was measured with a Payton duel channel aggregation module connected to a duel pen recorder for the continuous recording of the increase in light transmission due to clumping of platelets. The 0-100% transmission scale was set with PRP (0%) and PPP (100%). The temperature was set at 37° and the stirring speed at 900 rpm. 0.45 Ml. of PRP was added to a cuvette containing a teflon coating stirring bar and prewarmed at 37° in a water bath. 5 μl of various concentrations of (5Z,7β,9α,11α,13E,15R)-7-fluoro-6,9-epoxy-11,15-dihydroxy-16,16-dimethyl-prosta-5,13-dien-1-oic acid methyl ester, diluted from a stock solution of 5×10^-4 M in DMSO (dimethylsulfoxide) with phosphate buffered saline containing 1 mg/ml. of bovine serum albumin, fraction V, was added and stirred for 1 minute. The inducer of aggregation, arachidonic acid, at a concentration which will cause 50-70% aggregation after 5 minutes, was then added in 50 μl of solution. The % inhibition, set forth in the following Table, was calculated from the ratio of the % aggregation with (5Z,7β,9α,11α,13E,15R)-7-fluoro-6,9-epoxy-11,15-dihydroxy-16,16-dimethyl-prosta-5,13-dien-1-oic acid methyl ester over that with the vehicle×100.\nThe preparation of phosphate buffered saline and arachidonic acid solution used above is as follows: Phosphate buffered saline (PBS) was prepared by adding 1 mM solution of sodium phosphate aqueous buffer, pH 7.4 to 0.85% by weight/volume of an aqueous sodium chloride solution. Arachidonic acid solution was prepared as follows: A stock solution of 10 mg. per ml. in absolute ETOH was prepared and stored in freezer. To make a 10 mM solution, 0.3 ml. of the stock solution was evaporated to near dryness under nitrogen and redissolved in 0.75 ml. of 0.02NH4 OH (freshly prepared) and 0.2 ml. of PBS. Further dilutions of arachidonic acid were made with NH4 OH and PBS mixture."}
{"smiles": "CCCCC(C)(C)[C@H](O)/C=C/[C@@H]1[C@@H]2[C@H](C[C@H]1O)O/C(=C\\CCCC(=O)OC)[C@H]2F", "note": "[(5Z,7β,9α,11α,13E,15R)-7-fluoro-6,9-epoxy-11,15-dihydroxy-16,16-dimethyl-prosta-5,13-dien-1-oic acid methyl ester]", "values": [{"measurement": "inhibition at 0.0001 µM", "setting": "concentration 1 × 10^-10 M", "result": 20.8, "unit": "%"}, {"measurement": "inhibition at 10 pM", "setting": "concentration 1 × 10^-11 M", "result": 57.8, "unit": "%"}, {"measurement": "inhibition at 1 pM", "setting": "concentration 1 × 10^-12 M", "result": 71.4, "unit": "%"}, {"measurement": "inhibition at 100 fM", "setting": "concentration 1 × 10^-13 M", "result": 14.2, "unit": "%"}, {"measurement": "inhibition at 300 fM", "setting": "concentration 3 × 10^-13 M", "result": 20.8, "unit": "%"}]}
